Measured values reported in PubChem BioAssay AID248 (DTP/NCI, 2004).
“And” between values parts separate entries of the source, which are not always exact repeats. Identical values can stand only once. Toxic doses and inconclusive results are not listed.

Test system: L1210 leukemia ip in BDF1 mice, survival T/C
Experiment: NCI In Vivo Anticancer Drug Screen. Data for tumor model L1210 Leukemia (intraperitoneal) in B6D2F1 (BDF1) mice
Settings: endpoint: mean survival time, higher = longer survival
Outline: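 Each compound was tested against a transplantable tumor grown in mice. The endpoint was survival, with treated animals benchmarked against vehicle controls as a simple ratio.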

[1] = dose: 100.0 mg/kg/injection, schedule: Q04DX002 (ip), vehicle: Klucel (hydroxypropylcellulose) (HPC)
[2] = dose: 200.0 mg/kg/injection, schedule: Q04DX002 (ip), vehicle: Klucel (hydroxypropylcellulose) (HPC)
[3] = dose: 400.0 mg/kg/injection, schedule: Q04DX002 (ip), vehicle: Klucel (hydroxypropylcellulose) (HPC)
[4] = dose: 100.0 mg/kg/injection, schedule: Q04DX003 (ip), vehicle: saline
[5] = dose: 200.0 mg/kg/injection, schedule: Q04DX003 (ip), vehicle: saline
[6] = dose: 400.0 mg/kg/injection, schedule: Q04DX003 (ip), vehicle: saline
[7] = dose: 50.0 mg/kg/injection, schedule: Q01DX009 (ip), vehicle: Klucel (hydroxypropylcellulose) (HPC)
[8] = dose: 100.0 mg/kg/injection, schedule: Q01DX009 (ip), vehicle: Klucel (hydroxypropylcellulose) (HPC)
[9] = dose: 100.0 mg/kg/injection, schedule: Q04DX003 (ip), vehicle: Klucel (hydroxypropylcellulose) (HPC)
[10] = dose: 100.0 mg/kg/injection, schedule: Q04DX003 (ip), vehicle: saline with Tween-80
[11] = dose: 200.0 mg/kg/injection, schedule: Q04DX003 (ip), vehicle: saline with Tween-80
[12] = dose: 400.0 mg/kg/injection, schedule: Q04DX003 (ip), vehicle: saline with Tween-80
[13] = dose: 100.0 mg/kg/injection, schedule: Q01DX001 (ip), vehicle: saline
[14] = dose: 200.0 mg/kg/injection, schedule: Q01DX001 (ip), vehicle: saline
[15] = dose: 400.0 mg/kg/injection, schedule: Q01DX001 (ip), vehicle: saline
[16] = dose: 100.0 mg/kg/injection, schedule: Q01DX009 (ip), vehicle: saline with Tween-80
[17] = dose: 200.0 mg/kg/injection, schedule: Q01DX009 (ip), vehicle: saline with Tween-80
[18] = dose: 400.0 mg/kg/injection, schedule: Q01DX009 (ip), vehicle: saline with Tween-80

Structure (SMILES): O=C(O)c1ccc[cH-]1.O=C(O)c1ccc[cH-]1.[Fe+2]
- T/C [1]: 110 % of control
- T/C [2]: 100 % of control
- T/C [3]: 103 % of control

Structure (SMILES): C/C=C(\C)C(=Nc1ccc(Cl)c(Cl)c1)N(C)C
- T/C (dose: 222.0 mg/kg/injection, schedule: Q01DX Z (ip), vehicle: saline): 102 % of control
- T/C (dose: 333.0 mg/kg/injection, schedule: Q01DX Z (ip), vehicle: saline): 100 % of control
- T/C (dose: 500.0 mg/kg/injection, schedule: Q01DX Z (ip), vehicle: saline): 118 % of control

Structure (SMILES): CC1(C(=O)O)C2C=CC(C2)C1C(=O)O (configuration not stated)
- T/C [4]: 96 % of control
- T/C [5]: 94 % of control
- T/C [6]: 102 % of control

Structure (SMILES): CNc1ncc2nc(C)c(=O)n(C)c2n1
- T/C [7]: 98 % of control
- T/C [8]: 95 % of control

Structure (SMILES): CN(C(=O)c1ccccc1)N(C)C(=O)c1ccccc1
- T/C (dose: 25.0 mg/kg/injection, schedule: Q01DX009 (ip), vehicle: Klucel (hydroxypropylcellulose) (HPC)): 106 % of control
- T/C [7]: 95 % of control
- T/C (dose: 50.0 mg/kg/injection, schedule: Q04DX003 (ip), vehicle: Klucel (hydroxypropylcellulose) (HPC)): 98 % of control
- T/C [9]: 110 % of control

Structure (SMILES): C(/C=C/c1ccccc1)=Nc1ccc(CCc2ccc(N=C/C=C/c3ccccc3)cc2)cc1
- T/C [10]: 91 % of control
- T/C [11]: 92 % of control
- T/C [12]: 92 % of control

Structure (SMILES): Cc1ccc(NS(=O)(=O)c2ccccc2)c(C)c1
- T/C [8]: 99 % of control
- T/C [9]: 104 % of control
- T/C (dose: 200.0 mg/kg/injection, schedule: Q01DX009 (ip), vehicle: Klucel (hydroxypropylcellulose) (HPC)): 99 % of control
- T/C (dose: 200.0 mg/kg/injection, schedule: Q04DX003 (ip), vehicle: Klucel (hydroxypropylcellulose) (HPC)): 95 % of control
- T/C (dose: 400.0 mg/kg/injection, schedule: Q01DX009 (ip), vehicle: Klucel (hydroxypropylcellulose) (HPC)): 94 % of control
- T/C (dose: 400.0 mg/kg/injection, schedule: Q04DX003 (ip), vehicle: Klucel (hydroxypropylcellulose) (HPC)): 98 % of control

Structure (SMILES): CCCSP(=[Se])(CCC)c1ccccc1 (configuration not stated)
- T/C (dose: 25.0 mg/kg/injection, schedule: Q04DX002 (ip), vehicle: saline with Tween-80): 97 % of control
- T/C (dose: 50.0 mg/kg/injection, schedule: Q04DX002 (ip), vehicle: saline with Tween-80): 97 % of control
- T/C (dose: 100.0 mg/kg/injection, schedule: Q04DX002 (ip), vehicle: saline with Tween-80): 101 % of control

Structure (SMILES): COc1ccc(OC)c(NC(=O)Oc2ccc(Br)cc2Br)c1
- T/C [1]: 104 % of control
- T/C [2]: 104 % of control
- T/C [3]: 86 % of control

Structure (SMILES): CCCNC(=NC)c1ccc(NC(=O)c2ccc(C(=O)Nc3ccc(C(=NC)NCCC)cc3)cc2)cc1
- T/C (dose: 1.6 mg/kg/injection, schedule: Q01DX Z (ip), vehicle: saline): 94 % of control
- T/C (dose: 2.4 mg/kg/injection, schedule: Q01DX Z (ip), vehicle: saline): 111 % of control
- T/C (dose: 3.6 mg/kg/injection, schedule: Q01DX Z (ip), vehicle: saline): 107 % of control and 120 % of control
- T/C (dose: 5.5 mg/kg/injection, schedule: Q01DX Z (ip), vehicle: saline): 156 % of control and 162 % of control
- T/C (dose: 8.3 mg/kg/injection, schedule: Q01DX Z (ip), vehicle: saline): 151 % of control and 172 % of control
- T/C (dose: 12.5 mg/kg/injection, schedule: Q## X000 (oral), vehicle: saline): 103 % of control
- T/C (dose: 25.0 mg/kg/injection, schedule: Q## X000 (oral), vehicle: saline): 100 % of control
- T/C (dose: 50.0 mg/kg/injection, schedule: Q## X000 (oral), vehicle: saline): 101 % of control
- T/C (dose: 250.0 mg/kg/injection, schedule: Q01DX010 (oral), vehicle: saline): 107 % of control
- T/C (dose: 500.0 mg/kg/injection, schedule: Q01DX010 (oral), vehicle: saline): 114 % of control

Structure (SMILES): O=C(NO)c1cc(=O)[nH]o1
- T/C [10]: 95 % of control
- T/C [11]: 95 % of control
- T/C [12]: 95 % of control

Structure (SMILES): CSC(=N)N(C)Cc1ccccc1
- T/C (dose: 9.37 mg/kg/injection, schedule: Q01DX009 (ip), vehicle: saline): 103 % of control
- T/C (dose: 18.75 mg/kg/injection, schedule: Q01DX009 (ip), vehicle: saline): 111 % of control
- T/C (dose: 18.75 mg/kg/injection, schedule: Q04DX003 (ip), vehicle: saline): 102 % of control
- T/C (dose: 37.5 mg/kg/injection, schedule: Q01DX009 (ip), vehicle: saline): 108 % of control
- T/C (dose: 37.5 mg/kg/injection, schedule: Q04DX003 (ip), vehicle: saline): 96 % of control
- T/C (dose: 75.0 mg/kg/injection, schedule: Q01DX001 (ip), vehicle: saline): 102 % of control
- T/C (dose: 75.0 mg/kg/injection, schedule: Q04DX003 (ip), vehicle: saline): 88 % of control

Structure (SMILES): CCCCCCC(C)O[Si](C)Cc1ccccc1 (configuration not stated)
- T/C (dose: 100.0 mg/kg/injection, schedule: Q04DX003 (ip), vehicle: other): 95 % of control
- T/C (dose: 200.0 mg/kg/injection, schedule: Q04DX003 (ip), vehicle: other): 97 % of control
- T/C (dose: 400.0 mg/kg/injection, schedule: Q04DX003 (ip), vehicle: other): 94 % of control

Structure (SMILES): Fc1c(F)c(F)c(S/C=C/c2ccccc2)c(F)c1F
- T/C (dose: 100.0 mg/kg/injection, schedule: Q01DX001 (ip), vehicle: Klucel (hydroxypropylcellulose) (HPC)): 96 % of control
- T/C (dose: 200.0 mg/kg/injection, schedule: Q01DX001 (ip), vehicle: Klucel (hydroxypropylcellulose) (HPC)): 118 % of control
- T/C (dose: 400.0 mg/kg/injection, schedule: Q01DX001 (ip), vehicle: Klucel (hydroxypropylcellulose) (HPC)): 105 % of control

Structure (SMILES): CC1(C)/C(=C\S(=O)(=O)O)C2CCC1C2 (configuration not stated)
- T/C [13]: 105 % of control
- T/C [4]: 110 % of control
- T/C [14]: 105 % of control
- T/C [5]: 98 % of control
- T/C [15]: 103 % of control
- T/C [6]: 101 % of control

Structure (SMILES): COC(=O)NS(=O)(=O)/C=C\n1c2ccccc2c2ccccc21
- T/C (dose: 75.0 mg/kg/injection, schedule: Q01DX009 (ip), vehicle: Klucel (hydroxypropylcellulose) (HPC)): 98 % of control
- T/C (dose: 150.0 mg/kg/injection, schedule: Q01DX009 (ip), vehicle: Klucel (hydroxypropylcellulose) (HPC)): 109 % of control

Structure (SMILES): CCCCCCCN=C(N)c1ccc(C(=O)OC2CCCCC2)cc1
- T/C [13]: 96 % of control

Structure (SMILES): CCN/C(C)=C\C(=O)OCC
- T/C [16]: 95 % of control
- T/C [10]: 96 % of control
- T/C [17]: 111 % of control
- T/C [11]: 107 % of control
- T/C [18]: 95 % of control
- T/C [12]: 105 % of control

Structure (SMILES): CCOP(=O)(CCBr)Oc1ccc([N+](=O)[O-])cc1 (configuration not stated)
- T/C (dose: 0.5 mg/kg/injection, schedule: Q01DX001 (ip), vehicle: saline): 97 % of control
- T/C (dose: 1.0 mg/kg/injection, schedule: Q01DX001 (ip), vehicle: saline): 97 % of control
- T/C (dose: 2.0 mg/kg/injection, schedule: Q01DX001 (ip), vehicle: saline): 103 % of control
- T/C (dose: 4.0 mg/kg/injection, schedule: Q01DX001 (ip), vehicle: saline): 107 % of control

Structure (SMILES): CC12CC3CC(C1)CC(NCCO)(C3)C2
- T/C (dose: 10.0 mg/kg/injection, schedule: Q04DX002 (ip), vehicle: Klucel (hydroxypropylcellulose) (HPC)): 87 % of control
- T/C (dose: 20.0 mg/kg/injection, schedule: Q04DX002 (ip), vehicle: Klucel (hydroxypropylcellulose) (HPC)): 91 % of control
- T/C (dose: 40.0 mg/kg/injection, schedule: Q04DX002 (ip), vehicle: Klucel (hydroxypropylcellulose) (HPC)): 91 % of control

Structure (SMILES): Cc1ccc(S(=O)(=O)Nc2cccc3c(NS(=O)(=O)c4ccc(C)cc4)cccc23)cc1
- T/C [16]: 96 % of control
- T/C [17]: 94 % of control
- T/C [18]: 100 % of control

Structure (SMILES): CC(=O)Oc1ccc(Cl)cc1Cl
- T/C [10]: 100 % of control
- T/C [11]: 97 % of control

Structure (SMILES): O=C(NNc1ccccc1OCc1ccccc1)C(F)(F)F
- T/C (dose: 100.0 mg/kg/injection, schedule: Q01DX001 (ip), vehicle: saline with Tween-80): 100 % of control
- T/C (dose: 200.0 mg/kg/injection, schedule: Q01DX001 (ip), vehicle: saline with Tween-80): 103 % of control
- T/C (dose: 400.0 mg/kg/injection, schedule: Q01DX001 (ip), vehicle: saline with Tween-80): 95 % of control

Structure (SMILES): CCOC(=O)/C(O)=C\c1cc(Br)c(OC)cc1[N+](=O)[O-]
- T/C [13]: 102 % of control
- T/C [4]: 98 % of control
- T/C [14]: 107 % of control
- T/C [5]: 98 % of control
- T/C [15]: 95 % of control
- T/C [6]: 95 % of control
